In PMC10817512, “OSMAC-Based Discovery and Biosynthetic Gene Clusters Analysis of Secondary Metabolites from Marine-Derived Streptomyces globisporus SCSIO LCY30” (Marine Drugs, 2023) one finds IC50 and MIC data, which are given here for 3 compounds.

Read-outs that look alike come from different tables or passages of the source.

Experiment [1] deals with cervical cancer cell line Hela. As to the kind of experiment: Cell growth inhibitory (cytotoxic) activity assay. Format: cell-based, human. An excerpt: (§1) The cell growth inhibitory activities of compounds 1–3 against fourteen different human cell lines (human liver cell line LX-2; hepatocellular cancer line HEPG2; human intestinal epithelial cell line NCM460; colorectal cancer cell lines HCT116 and SW480; normal human breast cell line MCF-10A; breast cancer cell line MCF7; triple-negative breast cancer cell lines MDA-MB-231, MDA-MB-468, and Bt-549; human umbilical vein endothelial cell line; lung cancer cell line A549; cervical cancer cell line Hela; and cholangiocarcinoma cell line RBE) were tested according to the previously published methods. SPSS software version 22.0 was used to test the IC50 values. Cisplatin and adriamycin were used as positive control agents, and all the experiments were carried out in triplicate.

Experiment [2] concerns cholangiocarcinoma cell line RBE. As to the kind of experiment: Cell growth inhibitory (cytotoxic) activity assay. Format: cell-based, human.
Text: as §1

For experiment [3], the system named is colorectal cancer cell line HCT116. As to the kind of experiment: Cell growth inhibitory (cytotoxic) activity assay. The experiment is classed as cell-based, human.
Text: as §1

For experiment [4], the system named is colorectal cancer cell line SW480. As to the kind of experiment: Cell growth inhibitory (cytotoxic) activity assay. Format: cell-based, human. The following applies: SW480 (colorectal cancer).
Text: as §1

For experiment [5], the system named is hepatocellular cancer line HEPG2. As to the kind of experiment: Cell growth inhibitory (cytotoxic) activity assay. The experiment is classed as cell-based, human.
Text: as §1

For experiment [6], the system named is lung cancer cell line A549. As to the kind of experiment: Cell growth inhibitory (cytotoxic) activity assay. The following applies: Homo sapiens. Format: cell-based, human.
Text: as §1

Experiment [7] relates to triple-negative breast cancer cell line Bt-549. As to the kind of experiment: Cell growth inhibitory (cytotoxic) activity assay. Format: cell-based, human. The following applies: Bt-549 (TNBC).
Text: as §1

The test system of experiment [8] is triple-negative breast cancer cell line MDA-MB-231. As to the kind of experiment: Cell growth inhibitory (cytotoxic) activity assay. Format: cell-based, human. Conditions: MDA-MB-231 (TNBC).
Text: as §1

Experiment [9] has as its system triple-negative breast cancer cell line MDA-MB-468. As to the kind of experiment: Cell growth inhibitory (cytotoxic) activity assay. The experiment is classed as cell-based, human. The following applies: MDA-MB-468 (TNBC).
Text: as §1

For experiment [10], the system named is human intestinal epithelial cell line NCM460. As to the kind of experiment: Cell growth inhibitory (cytotoxic) activity assay. The experiment is classed as cell-based. The following applies: NCM460 (normal intestinal epithelial cell line).
Text: as §1

Experiment [11] relates to human liver cell line LX-2. The experiment in a line: Cell growth inhibitory (cytotoxic) activity assay. Format: cell-based. Conditions: LX-2 (human liver cell line).
Text: as §1

Experiment [12] deals with human umbilical vein endothelial cell line HUVEC. As to the kind of experiment: Cell growth inhibitory (cytotoxic) activity assay. Format: cell-based.
Text: as §1

Experiment [13] deals with normal human breast cell line MCF-10A. As to the kind of experiment: Cell growth inhibitory (cytotoxic) activity assay. The experiment is classed as cell-based. Conditions: MCF-10A (normal human breast cell line).
Text: as §1

For a further experiment, the system named is Bacillus subtilis. Further details: method as in PMID 18396903. Conditions: ref [35]; cited from earlier work.
The subject of experiment [14] is breast cancer cell line MCF7. The experiment in a line: Cell growth inhibitory (cytotoxic) activity assay. The experiment is classed as cell-based, human. An excerpt: SPSS software version 22.0 was used to test the IC50 values.

What is called IC50 is the midpoint of a concentration-inhibition curve. A high value points to a need for much substance. With `COc1cccc2c1C(=O)c1c(O)c3c(c(O)c1C2=O)C[C@@](O)(C(=O)CO)C[C@@H]3O[C@H]1C[C@H](N)[C@H](O)[C@H](C)O1` [Adriamycin, reference compound], the IC50 in experiment [1] (Homo sapiens) is 7.02 µM; in experiment [2] (Homo sapiens), 4.26 µM; in experiment [3] (Homo sapiens, HCT-116), 1.54 µM; in [4] (Homo sapiens) it was 17.5 µM; in [5] (Homo sapiens), 15.5 µM; in experiment [6], 1510 nM. Moreover, the IC50 is 3.75 µM in experiment [7] (Homo sapiens); 4.04 µM in [8] (Homo sapiens); 3.16 µM in experiment [9] (Homo sapiens); 3.89 µM in experiment [10] (Homo sapiens); 1.36 µM in experiment [11]; 12 µM in experiment [12]. In [13], this compound came in with an IC50 of 3.72 µM.
What is called MIC is the lowest concentration found to suppress growth. streptophenazine H: the MIC in the experiment on Bacillus subtilis is on record as 15.6 µg/mL.
In the case of `N.N.[Cl][Pt][Cl]` [Cisplatin, reference compound], the IC50 in experiment [1] amounted to 7.62 µM; in [2], 13.5 µM; in experiment [3], 4.83 µM; in experiment [4], 1.82 µM; in [5] it was 11 µM; in [7], 7.54 µM. The IC50 in experiment [8] was 15.7 µM; in experiment [9], 8.35 µM; in experiment [14], 4.56 µM; in experiment [10] it was 3.17 µM; in [11] it was 12.1 µM; in experiment [12], 7.7 µM. This compound also registered a concentration for half-maximal inhibition (IC50) in experiment [13] of 6.43 µM.
